How the values were obtained:
Assay type in all cases: in vivo
Echinochloa crus-galli [1] = assay: Test Example 1: herbicidal effect test by soil treatment in paddy field; settings: 120 g/10a, paddy soil treatment just after sowing, 14 days after treatment
In short: (§1)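 Seeds (30 per species) are sown 0–1 cm deep in puddled, fertilized paddy soil, then flooded to about 3 cm. Water-diluted emulsifiable concentrate is dripped in at once, giving 120 g active ingredient per 10 are. Plants grow 14 days in a glass greenhouse before dry weights are compared with untreated.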

Lindernia pyxidaria [2] = assay: as above; settings: 120 g/10a, paddy soil treatment just after sowing, 14 days after treatment
In short: as §1

Monochoria vaginalis [3] = assay: as above; settings: 120 g/10a, paddy soil treatment just after sowing, 14 days after treatment
In short: as §1

Scirpus juncoides [4] = assay: as above; settings: 120 g/10a, paddy soil treatment just after sowing, 14 days after treatment
In short: as §1

Echinochloa crus-galli [5] = assay: Test Example 2: herbicidal effect test by treatment during growing period in paddy field; settings: treatment 7 days after sowing, 120 g/10a, evaluated 14 days after treatment
In short: (§2)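 Paddy soil in flooded pots (~3 cm water), 30 seeds per species sown 0–1 cm deep, greenhouse. Emulsifiable concentrate diluted in water and dripped into the water 7 days after sowing at 120 g a.i. per 10 are. Suppression (%) from dry weight vs untreated, 14 days post-treatment, two replicates.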

Lindernia pyxidaria [6] = assay: as above; settings: treatment 7 days after sowing, 120 g/10a, evaluated 14 days after treatment
In short: as §2

Monochoria vaginalis [7] = assay: as above; settings: treatment 7 days after sowing, 120 g/10a, evaluated 14 days after treatment
In short: as §2

Scirpus juncoides [8] = assay: as above; settings: treatment 7 days after sowing, 120 g/10a, evaluated 14 days after treatment
In short: as §2

Amaranthus viridis [9] = assay: Test Example 3: herbicidal effect test by soil treatment in upland field; settings: upland field soil treatment 1 day after sowing; 120 g/10a; evaluated 14 days after treatment
Method: (§3) This test was performed with two replications per one formulation concentration plot, and 14 days after the formulation treatments, the weed suppression rate (%) was determined according to the following equation (Math. 1). Weed suppression rate (%)=(1−an average dry weight (g) of plants in treated plots/an average dry weight (g) of plants in untreated plots)×100 [Math. 1]
(§4) A pot having a size of 36 cm^2 was filled with field soil (alluvial soil) and after uniformly mixing the soil of the surface layer of 1 cm with 20 grains of each weed seed of crabgrass, Echinochloa crus-galli, Chenopodium album and Amaranthus viridis, the surface layer was pressed lightly. One day after the sowing, an emulsifiable concentrate prepared according to Formulation Example 5 by using the compound shown in Table 7 below was diluted with water, and the water-diluted formulation was sprayed on the soil surface at a ratio of 100 liter per 10 are. The application rate of the active ingredient, by conversion, corresponded to 120 g per 10 are. Fourteen days after the formulation treatment, the herbicidal effect was evaluated by the same criteria as in Test Example 1.

Chenopodium album [10] = assay: as above; settings: upland field soil treatment 1 day after sowing; 120 g/10a; evaluated 14 days after treatment
Method: as §3, §4

Echinochloa crus-galli [11] = assay: as above; settings: upland field soil treatment 1 day after sowing; 120 g/10a; evaluated 14 days after treatment
Method: as §3, §4

crabgrass [12] = assay: as above; settings: upland field soil treatment 1 day after sowing; 120 g/10a; evaluated 14 days after treatment
Method: as §3, §4

Amaranthus viridis [13] = assay: Test Example 4: herbicidal effect test by foliage treatment in upland field; settings: upland field foliage treatment 7 days after sowing; 120 g/10a; evaluated 14 days after treatment
In short: (§5)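 Suppression rate (%) derives from mean plant dry weight in treated versus untreated plots, measured 14 days after spraying, with two replications per plot. The emulsifiable concentrate was applied 7 days after sowing at 120 g active ingredient per 10 are.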

Chenopodium album [14] = assay: as above; settings: upland field foliage treatment 7 days after sowing; 120 g/10a; evaluated 14 days after treatment
In short: as §5

Echinochloa crus-galli [15] = assay: as above; settings: upland field foliage treatment 7 days after sowing; 120 g/10a; evaluated 14 days after treatment
In short: as §5

crabgrass [16] = assay: as above; settings: upland field foliage treatment 7 days after sowing; 120 g/10a; evaluated 14 days after treatment
In short: as §5

Structure (SMILES) | weed suppression rate, Echinochloa crus-galli (Echinochloa crus-galli [1]) [%] | weed suppression rate, Lindemia pyxidaria (Lindernia pyxidaria [2]) [%] | weed suppression rate, Monochoria vaginalis (Monochoria vaginalis [3]) [%] | weed suppression rate, Scirpus juncoides (Scirpus juncoides [4]) [%] | weed suppression rate, Echinochloa crus-galli (Echinochloa crus-galli [5]) [%] | weed suppression rate, Lindemia pyxidaria (Lindernia pyxidaria [6]) [%] | weed suppression rate, Monochoria vaginalis (Monochoria vaginalis [7]) [%] | weed suppression rate, Scirpus juncoides (Scirpus juncoides [8]) [%] | herbicidal effect (weed suppression rate), Amaranthus viridis (Amaranthus viridis [9]) [%] | herbicidal effect (weed suppression rate), Chenopodium album (Chenopodium album [10]) [%] | herbicidal effect (weed suppression rate), Echinochloa crus-galli (Echinochloa crus-galli [11]) [%] | herbicidal effect (weed suppression rate), Crabgrass (crabgrass [12]) [%] | herbicidal effect (weed suppression rate), Amaranthus viridis (Amaranthus viridis [13]) [%] | herbicidal effect (weed suppression rate), Chenopodium album (Chenopodium album [14]) [%] | herbicidal effect (weed suppression rate), Echinochloa crus-galli (Echinochloa crus-galli [15]) [%] | herbicidal effect (weed suppression rate), Crabgrass (crabgrass [16]) [%]
CC(C)N(C(=O)n1ncn(S(=O)(=O)C2CC2)c1=O)c1ccc(F)c(F)c1F [Compound 1-203] | 100 | 100 | 90 | 100 | 100 | 80 | 100 | 100 | 90 | 60 | 80 | 80 | 100 | 80 | 100 | 100
CC(C)N(C(=O)n1ncn(S(=O)(=O)C2CC2)c1=O)c1ccc(F)cc1Cl [Compound 1-214] | 90 | 80 | 80 | 90 | 90 | 80 | 80 | 90 | 90 | 80 | 80 | 90 | 90 | 80 | 80 | 90
CC(C)N(C(=O)n1ncn(S(=O)(=O)C2CC2)c1=O)c1ccc(Cl)cc1F [Compound 1-215] | 100 | 100 | 100 | 100 | 100 | 100 | 100 | 100 | 80 | 80 | 80 | 80 | 60 | 60 | 90 | 90
CC(C)N(C(=O)n1ncn(S(=O)(=O)C(C)C)c1=O)c1cccnc1F [Compound 1-241] | 100 | 90 | 90 | 80 | 100 | 90 | 80 | 80 | 90 | 90 | 90 | 90 | 50 | 70 | 90 | 90
CC(C)N(C(=O)n1ncn(S(=O)(=O)C2CC2)c1=O)c1ccc(Cl)cn1 [Compound 1-244] | 100 | 100 | 90 | 90 | 100 | 100 | 90 | 90 | 50 | 40 | 80 | 90 | 0 | 40 | 90 | 90
CC(C)N(C(=O)n1ncn(S(=O)(=O)C2CC2)c1=O)c1ccc(Cl)nc1Cl [Compound 1-249] | 100 | 90 | 90 | 90 | 100 | 90 | 90 | 90 | 90 | 80 | 80 | 90 | 90 | 80 | 80 | 90
Cc1nn(C(=O)N(c2ccc(F)cc2F)C(C)C)c(=O)n1S(=O)(=O)C1CC1 [Compound 1-257] | 90 | 80 | 80 | 90 | 90 | 80 | 80 | 90 | 90 | 80 | 80 | 90 | 90 | 80 | 80 | 90
CC(C)N(C(=O)n1ncn(S(=O)(=O)C2CCC2)c1=O)c1ccc(F)cc1F [Compound 1-269] | 100 | 100 | 100 | 90 | 100 | 100 | 90 | 90 | 90 | 90 | 90 | 90 | 90 | 80 | 80 | 90
CC(C)N(C(=O)n1ncn(S(=O)(=O)C2CCCC2)c1=O)c1ccc(F)cc1F [Compound 1-284] | 100 | 100 | 100 | 100 | 90 | 90 | 90 | 90 | 60 | 90 | 90 | 90 | 90 | 80 | 80 | 90

From US11076595B2, “1-(n,n-disubstituted carbamoyl) 4-(substituted sulfonyl)triazolin-5-one derivative, 4-(n,n-disubstituted carbamoyl) 1-(substituted sulfonyl)triazolin-5-one derivative, and herbicide containing said derivative as active ingredient” (HOKKO CHEMICAL INDUSTRY CO., LTD., priority 2017, dated 2021)
